Columns and labels:
Type in all cases: cell-based
PsHv1 = target: T1, PsHv1 (Picea sitchensis, UniProt B8LLA1); assay: inside-out patch-clamp of proton currents, Hill fit
T1 construct: full-length channel (ABR16431.1, 260 a.a.) expressed in Xenopus oocytes
T1 sequence (B8LLA1 1-260): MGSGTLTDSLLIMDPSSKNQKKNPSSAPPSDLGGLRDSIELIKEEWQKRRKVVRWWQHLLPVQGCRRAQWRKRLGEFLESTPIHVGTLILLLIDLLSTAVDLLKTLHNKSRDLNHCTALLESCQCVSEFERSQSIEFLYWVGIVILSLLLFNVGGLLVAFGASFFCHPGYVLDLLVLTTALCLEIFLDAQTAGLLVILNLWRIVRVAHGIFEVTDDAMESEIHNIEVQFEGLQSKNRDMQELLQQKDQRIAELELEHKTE

SmHv1 = target: T2, SmHv1 (Selaginella moellendorffii, UniProt D8SZW5); assay: inside-out patch-clamp of proton currents
T2 construct: gene SELMODRAFT_128853; full-length channel (EFJ10096.1, 242 a.a.) expressed in Xenopus oocytes, after mechanical stimulus
T2 sequence (D8SZW5 1-242): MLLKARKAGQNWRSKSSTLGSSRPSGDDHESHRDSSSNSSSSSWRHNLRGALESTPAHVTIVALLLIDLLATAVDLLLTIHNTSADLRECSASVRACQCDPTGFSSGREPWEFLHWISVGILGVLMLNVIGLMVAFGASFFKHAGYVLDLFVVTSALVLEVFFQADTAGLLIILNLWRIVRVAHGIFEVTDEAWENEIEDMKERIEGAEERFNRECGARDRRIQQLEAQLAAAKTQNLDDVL

AtHv1 = target: T3, AtHv1 (Arabidopsis thaliana, UniProt Q9SGX2); assay: inside-out patch-clamp of proton currents
T3 construct: gene At1g10800; full-length channel (NP_001321473.1, 236 a.a.) expressed in Xenopus oocytes, after mechanical stimulus
T3 sequence (Q9SGX2 1-236): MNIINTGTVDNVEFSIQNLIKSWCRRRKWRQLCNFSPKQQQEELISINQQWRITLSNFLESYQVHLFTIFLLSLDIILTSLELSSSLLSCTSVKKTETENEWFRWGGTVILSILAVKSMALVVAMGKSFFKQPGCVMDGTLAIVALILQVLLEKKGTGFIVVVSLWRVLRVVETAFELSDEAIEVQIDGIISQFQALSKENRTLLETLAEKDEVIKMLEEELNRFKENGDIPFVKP

N=C(N)Nc1nc2ccccc2[nH]1 [2GBI, 2-guanidinobenzimidazole]
IC50 (PsHv1): 372 ± 28 µM | inside-out patch-clamp of proton currents (SmHv1): Despite some small differences in the extent of inhibition by 2GBI, AtHv1, SmHv1, and PsHv1 shared a low sensitivity | inside-out patch-clamp of proton currents (AtHv1): Despite some small differences in the extent of inhibition by 2GBI, AtHv1, SmHv1, and PsHv1 shared a low sensitivity

N=C(N)Nc1nc2ccc(Cl)cc2[nH]1 [ClGBI, 5-chloro-2-guanidinobenzimidazole]
IC50 (PsHv1): 39 ± 8 µM | inside-out patch-clamp of proton currents (SmHv1): we tested the effects of 2GBI and ClGBI on AtHv1- and SmHv1-mediated currents post-mechanical stimulation | inside-out patch-clamp of proton currents (AtHv1): we tested the effects of 2GBI and ClGBI on AtHv1- and SmHv1-mediated currents post-mechanical stimulation

Reference: publication PMC10657467, “Mechanically-primed voltage-gated proton channels from angiosperm plants” (Nature Communications, 2023)
